The target of one assay is T1, Aurora A kinase (Homo sapiens, UniProt O14965).
T1 construct: purchased Upstate
T1 sequence (O14965 1-403): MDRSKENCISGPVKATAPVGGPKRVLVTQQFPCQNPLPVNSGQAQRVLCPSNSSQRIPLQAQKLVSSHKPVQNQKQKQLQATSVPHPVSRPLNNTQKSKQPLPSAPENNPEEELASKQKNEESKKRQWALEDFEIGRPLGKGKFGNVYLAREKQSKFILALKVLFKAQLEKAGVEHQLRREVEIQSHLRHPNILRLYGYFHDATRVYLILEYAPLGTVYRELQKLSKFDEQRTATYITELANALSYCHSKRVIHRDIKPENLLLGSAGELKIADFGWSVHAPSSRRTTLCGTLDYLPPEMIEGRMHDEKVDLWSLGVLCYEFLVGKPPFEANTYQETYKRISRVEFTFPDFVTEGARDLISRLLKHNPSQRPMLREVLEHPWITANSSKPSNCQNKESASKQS
The assay is described as follows: Aurora A kinase assay ([γ-33P]ATP, CHOCKtide substrate). The format is biochemical. The method in brief: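 Recombinant Aurora A (1 ng) or Aurora B (2.5 ng) incubated with test compound, CHOCKtide (1 μg) and [γ-33P]ATP/ATP at 10 μM (Aurora A) or 40 μM (Aurora B), 30 min at 33 °C. Stopped with phosphoric acid; filter-bound 33P counted; IC50 = half-maximal inhibition.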

The next assay concerns the target T2, Flt3 kinase (Homo sapiens, UniProt P36888).
T2 construct: recombinant N-terminal 6×His-tagged Flt3 kinase domain construct expressed from baculovirus; 6xHis (N); made in house
T2 sequence (P36888 610-943 limits assumed): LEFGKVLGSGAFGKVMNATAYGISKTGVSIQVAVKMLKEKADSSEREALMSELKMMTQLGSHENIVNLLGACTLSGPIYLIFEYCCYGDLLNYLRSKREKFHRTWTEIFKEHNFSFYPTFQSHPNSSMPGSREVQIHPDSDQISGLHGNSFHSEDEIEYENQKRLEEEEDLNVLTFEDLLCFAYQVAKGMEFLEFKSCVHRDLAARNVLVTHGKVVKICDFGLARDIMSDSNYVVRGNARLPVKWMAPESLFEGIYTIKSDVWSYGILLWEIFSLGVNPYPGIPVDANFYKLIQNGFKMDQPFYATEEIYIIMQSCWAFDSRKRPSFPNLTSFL
The assay is described as follows: Flt3 kinase assay (33P incorporation into Poly(Glu-Tyr)). Conditions: 100 nM test compound; read-out: Inhibition at 100 nM (%) Flt-3. In kind it is biochemical. The method, then: Inhibition of Flt3 kinase activity by compounds disclosed herein was quantified by measuring the amount of [^33P] incorporated into the substrate in the presence of a test compound. Briefly, a reaction mixture of 25 μL final volume containing 5 ng of Flt3 kinase (obtained by purifying recombinant N-terminal 6×His-tagged Flt3 kinase domain construct expressed from baculovirus), 5 μg of the substrate (Poly (Glu-Tyr, 4:1, Sigma)), kinase reaction buffer (20 mM MOPS pH 7.0, 1 mM EDTA, 5% glycerol, 0.01% Brij-35, 0.1% β-mercaptoethanol, 1 mg/mL BSA, 100 μM ATP, 0.1 μCi per well [^33P]-γ-ATP (2,500-3,000 Ci/mmol)), and a test compound (100 nM, diluted with 4% DMSO) or DMSO (as the control) was incubated at 30° C. for 30 minutes. The reaction was stopped by adding 5 μL of 3% phosphoric acid solution. The resultant reaction solution was then harvested onto a filter plate (UniFilter-96 GF/B, PerkinElmer), washed 20 times for 5 min with d.d. H2O, and followed by the addition of 30 μL of MicroScint™-20 Cocktail (PerkinElmer). The plate was then sealed and counted using a TopCount scintillation detector (PerkinElmer). The percentage of inhibition rate of the test compound was calculated by dividing the retained radioactivity of the test sample with the retained radioactivity of the control sample and shown in Table 3.

For the compound `CCOC(=O)CCc1c(/C=C2\C(=O)Nc3ccccc32)[nH]c2c1C(=O)CCC2` [DCB-70049, (Z)-3-((3-(3-ethoxy-3-oxopropyl)-4-oxo-4,5,6,7-tetrahydro-1H-indol-2-yl)methylene)indolin-2-one], on Aurora A kinase, the IC50 (usually the concentration that gives 50% inhibition) was found to be 1780 nM. Besides, the inhibition (commonly the drop in the measured response relative to a control, in per cent) at 1 µM against Aurora A kinase (1.0 μM test compound) was 32.6%. In addition, the inhibition at 0.1 µM on Flt3 kinase is 90.2%.
For `O=C(O)CCc1c(/C=C2\C(=O)Nc3ccccc32)[nH]c2c1C(=O)CCC2` [DCB-70052, (Z)-3-((3-carboxyethyl-4-oxo-4,5,6,7-tetrahydro-1H-indol-2-yl)methylene)indolin-2-one] the same measures were 209 nM, 74.8% and 72.1%.
`CCOC(=O)CCc1c(/C=C2\C(=O)Nc3ccc(F)cc32)[nH]c2c1C(=O)CCC2` [DCB-70053, (Z)-5-fluoro-3-((3-(3-ethoxy-3-oxopropyl)-4-oxo-4,5,6,7-tetrahydro-1H-indol-2-yl)methylene)indolin-2-one] returned a 50% inhibitory concentration (IC50) against Aurora A kinase of 1980 nM. Moreover, the “Aurora A kinase assay Inhibition at 1.0 μM (%)” value at Aurora A kinase (1.0 μM test compound, 1 µM) is recorded as 38.2%. For the same compound, at Flt3 kinase, the inhibition at 0.1 µM worked out at 97.3%.
On to `CCOC(=O)CCc1c(/C=C2\C(=O)Nc3ccc(Br)cc32)[nH]c2c1C(=O)CCC2` [DCB-70056, (Z)-5-bromo-3-((3-(3-ethoxy-3-oxopropyl)-4-oxo-4,5,6,7-tetrahydro-1H-indol-2-yl)methylene)indolin-2-one], for which the inhibition at 1 µM at Aurora A kinase (1.0 μM test compound) was 55%. Besides, the inhibition at 0.1 µM at Flt3 kinase turned out to be 99.2%.
On to `O=C(O)CCc1c(/C=C2\C(=O)Nc3ccc(Br)cc32)[nH]c2c1C(=O)CCC2` [DCB-70057, (Z)-5-bromo-3-((3-carboxyethyl-4-oxo-4,5,6,7-tetrahydro-1H-indol-2-yl)methylene)indolin-2-one], for which the IC50 against Aurora A kinase was found to be 211 nM. On Aurora A kinase (1.0 μM test compound), the inhibition at 1 µM is 89.5%. On Flt3 kinase, the inhibition at 0.1 µM was determined as 92.8%.
Take `CCOC(=O)CCc1c(/C=C2\C(=O)Nc3ccc(-c4ccc(O)c(OC)c4)cc32)[nH]c2c1C(=O)CCC2` [DCB-70058, (Z)-5-(4-hydroxyl-3-methoxyphenyl)-3-((3-(3-ethoxy-3-oxopropyl)-4-oxo-4,5,6,7-tetrahydro-1H-indol-2-yl)methylene)indolin-2-one]: the inhibition at 1 µM against Aurora A kinase (1.0 μM test compound) stood at 17.7%. The inhibition at 0.1 µM at Flt3 kinase was determined as 55.1%.
Compound `COc1cc(-c2ccc3c(c2)/C(=C/c2[nH]c4c(c2CCC(=O)O)C(=O)CCC4)C(=O)N3)ccc1O` [DCB-70059, (Z)-5-(4-hydroxyl-3-methoxyphenyl)-3-((3-carboxyethyl-4-oxo-4,5,6,7-tetrahydro-1H-indol-2-yl)methylene)indolin-2-one] gave an IC50 against Aurora A kinase of 357 nM. For the same compound, the inhibition at 1 µM on Aurora A kinase (1.0 μM test compound) came to 76.1%. Moreover, the inhibition at 0.1 µM at Flt3 kinase was found to be 21.5%.
Turning to `CCOC(=O)CCc1c(/C=C2\C(=O)Nc3ccc([N+](=O)[O-])cc32)[nH]c2c1C(=O)CCC2` [DCB-70062, (Z)-5-nitro-3-((3-(3-ethoxy-3-oxopropyl)-4-oxo-4,5,6,7-tetrahydro-1H-indol-2-yl)methylene)indolin-2-one], the inhibition at 1 µM against Aurora A kinase (1.0 μM test compound) was -7.2%. In addition, the inhibition at 0.1 µM on Flt3 kinase was determined as 91.6%.
At Aurora A kinase, `O=C(O)CCc1c(/C=C2\C(=O)Nc3ccc([N+](=O)[O-])cc32)[nH]c2c1C(=O)CCC2` [DCB-70063, (Z)-5-nitro-3-((3-carboxyethyl-4-oxo-4,5,6,7-tetrahydro-1H-indol-2-yl)methylene)indolin-2-one] had an IC50 of 724 nM. For the same compound, the inhibition at 1 µM at Aurora A kinase (1.0 μM test compound) worked out at 56.6%. On Flt3 kinase, the inhibition at 0.1 µM is 74.7%.
The matching figures for `CCOC(=O)CCc1c(/C=C2\C(=O)Nc3ccc(S(=O)(=O)NC)cc32)[nH]c2c1C(=O)CCC2` [DCB-70064, (Z)-5-(N-methylsulfamoyl)-3-((3-(3-ethoxy-3-oxopropyl)-4-oxo-4,5,6,7-tetrahydro-1H-indol-2-yl)methylene)indolin-2-one]: 313 nM, 78.6% and 25.7%.
On Aurora A kinase, `CNS(=O)(=O)c1ccc2c(c1)/C(=C/c1[nH]c3c(c1CCC(=O)O)C(=O)CCC3)C(=O)N2` [DCB-70065, (Z)-5-(N-methylsulfamoyl)-3-((3-carboxyethyl-4-oxo-4,5,6,7-tetrahydro-1H-indol-2-yl)methylene)indolin-2-one] gave an IC50 of 30.8 nM. In addition, the inhibition at 1 µM on Aurora A kinase (1.0 μM test compound) is 97.3%. Further, the inhibition at 0.1 µM at Flt3 kinase was -6.8%.
On to `CCOC(=O)CCc1c(/C=C2\C(=O)Nc3cc(-c4ccc(O)cc4)ccc32)[nH]c2c1C(=O)CCC2` [DCB-70066, (Z)-6-(4-hydroxyphenyl)-3-((3-(3-ethoxy-3-oxopropyl)-4-oxo-4,5,6,7-tetrahydro-1H-indol-2-yl)methylene)indolin-2-one], for which, at Aurora A kinase (1.0 μM test compound), the inhibition at 1 µM amounted to 40.1%. In addition, the inhibition at 0.1 µM at Flt3 kinase is 38.6%.
The matching figures for `CCOC(=O)CCc1c(/C=C2\C(=O)Nc3ccc(-c4ccc(OC)c(OC)c4)cc32)[nH]c2c1C(=O)CCC2` [DCB-70067, (Z)-5-(3,4-dimethoxyphenyl)-3-((3-(3-ethoxy-3-oxopropyl)-4-oxo-4,5,6,7-tetrahydro-1H-indol-2-yl)methylene)indolin-2-one]: 5.2% and 21.2%.
At Aurora A kinase, `COc1ccc(-c2ccc3c(c2)/C(=C/c2[nH]c4c(c2CCC(=O)O)C(=O)CCC4)C(=O)N3)cc1OC` [DCB-70068, (Z)-5-(3,4-dimethoxyphenyl)-3-((3-carboxyethyl-4-oxo-4,5,6,7-tetrahydro-1H-indol-2-yl)methylene)indolin-2-one] came in with an IC50 of 560 nM. Besides, the inhibition at 1 µM on Aurora A kinase (1.0 μM test compound) was 54%. Besides, at Flt3 kinase, the inhibition at 0.1 µM was determined as 15.6%.
Regarding `CCOC(=O)CCc1c(/C=C2\C(=O)Nc3ccc(-c4cc5ccccc5s4)cc32)[nH]c2c1C(=O)CCC2` [DCB-70069, (Z)-5-(benzo[b]thiophen-2-yl)-3-((3-(3-ethoxy-3-oxopropyl)-4-oxo-4,5,6,7-tetrahydro-1H-indol-2-yl)methylene)indolin-2-one], the inhibition at 1 µM against Aurora A kinase (1.0 μM test compound) is 16.5%. For the same compound, the inhibition at 0.1 µM on Flt3 kinase amounted to 9.6%.
Take `O=C(O)CCc1c(/C=C2\C(=O)Nc3ccc(-c4cc5ccccc5s4)cc32)[nH]c2c1C(=O)CCC2` [DCB-70070, (Z)-5-(benzo[b]thiophen-2-yl)-3-((3-carboxyethyl-4-oxo-4,5,6,7-tetrahydro-1H-indol-2-yl)methylene)indolin-2-one]: on Aurora A kinase (1.0 μM test compound), the inhibition at 1 µM came to 31.4%. Also, the inhibition at 0.1 µM at Flt3 kinase was 13.3%.
`O=C(O)CCc1c(/C=C2\C(=O)Nc3ccc(S(=O)(=O)Cc4ccccc4)cc32)[nH]c2c1C(=O)CCC2` [DCB-70071, (Z)-5-benzylsulfonyl-3-((3-carboxyethyl-4-oxo-4,5,6,7-tetrahydro-1H-indol-2-yl)methylene)indolin-2-one]: the IC50 at Aurora A kinase came to 270 nM. On Aurora A kinase (1.0 μM test compound), the inhibition at 1 µM was found to be 82.1%. In addition, the inhibition at 0.1 µM at Flt3 kinase is 21.2%.
For `O=C(O)CCc1c(/C=C2\C(=O)Nc3ccc(S(=O)(=O)Cc4ccc(F)cc4)cc32)[nH]c2c1C(=O)CCC2` [DCB-70072, (Z)-5-(4-fluorobenzylsulfonyl)-3-((3-carboxyethyl-4-oxo-4,5,6,7-tetrahydro-1H-indol-2-yl)methylene)indolin-2-one] the same measures were 443 nM, 71.1% and -2.1%.
For `O=C(O)CCc1c(/C=C2\C(=O)Nc3ccc(S(=O)(=O)Cc4c(Cl)cccc4Cl)cc32)[nH]c2c1C(=O)CCC2` [DCB-70073, (Z)-5-(2,6-dichlorobenzylsulfonyl)-3-((3-carboxyethyl-4-oxo-4,5,6,7-tetrahydro-1H-indol-2-yl)methylene)indolin-2-one], the inhibition at 1 µM against Aurora A kinase (1.0 μM test compound) worked out at 65.5%. Besides, the inhibition at 0.1 µM on Flt3 kinase came out at 1.4%.

(Values after patent US7897602B2, “Indolinone compounds as kinase inhibitors” (Development Center for Biotechnology, priority 2009, dated 2011).)
